Measurements: paper PMC7699745, “The Search for New Anticonvulsants in a Group of (2,5-Dioxopyrrolidin-1-yl)(phenyl)Acetamides with Hybrid Structure—Synthesis and In Vivo/In Vitro Studies” (International Journal of Molecular Sciences, 2020)
Like-named read-outs stand apart in the source and are kept apart here.

Tests used:
[1] = system: MES seizures, mice; assay: Maximal electroshock (MES) seizure test; format: in vivo; details: Mus musculus, ip; for responders at 100 mg/kg: 0.5 h, i.p.; for ED50: at TPE (0.5 h; LTG 1.0 h), 95% confidence intervals in parentheses
[2] = system: 6 Hz (32 mA) seizures, mice; assay: Psychomotor 6 Hz (32 mA) seizure model; format: in vivo; details: for responders at 100 mg/kg / ED50: Mus musculus, ip; for responders at 100 mg/kg: 0.5 h, read-out: 6 Hz (32 mA) test, number of mice protected / number of mice tested (converted); for ED50: at TPE (0.5 h; LTG 1.0 h), 95% confidence intervals in parentheses
[3] = system: Na+ channel (site 2); assay: Radioligand binding, Na+ channel (site 2); details: 10 µM; rat cerebral cortex
Description: (§1) Taking into consideration the structural similarities of molecules described in the current manuscript with their chemical prototypes AS-1 and DK-1, the binding studies toward aforementioned molecular targets were performed commercially for several active substances from each subseries (3, 4, 21, 24, 25, 27, 29, and 30). Furthermore, we also tested two other and well-known targets for AEDs, namely, the Cav2.2 (N-type) calcium channel and gamma-aminobutyric acid (GABA)-A receptor. With the aim of excluding potentially dangerous proarrhythmic properties for each compound, their interaction with the potassium (hERG) channel was also tested.
(§2) Binding studies were carried out commercially in Eurofines Laboratories (Poitiers, France). The functional assays were performed in Eurofins Panlabs Discovery Services Taiwan, Ltd. (New Taipei City, Taiwan). All procedures are described elsewhere (for details, see Table S4 in Supplementary Materials).
(§3) Binding studies were carried out commercially in Eurofines Laboratories (Poitiers, France). The
(§4) functional assays were performed in Eurofins Panlabs Discovery Services Taiwan, Ltd. (New Taipei
(§5) City, Taiwan). All procedures are described elsewhere (Table S4).
(§6) Table S4. In vitro binding and functional assays. […]

[4] = target: T1, Cav1.2 channel (Rattus norvegicus, UniProt P22002); assay: Radioligand binding, Cav1.2 channel; parameters: inhibition: dose or concentration left out as unconfirmed; details: for inhibition: rat cerebral cortex, read-out: % Inhibition of Control Specific Binding, Cav1.2 Channel (Antagonist Radioligand); for binding to voltage-gated calcium channels Cav1.2: concentration of 10 µM
T1 construct: tissue Eurofins (Poitiers, France), contract assay; host or cells: rat cerebral cortex (own knowledge of the vendor's assay)
Description: as §1, §2, §3, §4, §5
(§7) Table S4. In vitro binding and functional assays.
(§8) GABA-A receptor (α1,β2,γ2)
(§9) Potassium channel (hERG) 14
(§10) Cav1.2 (h) calcium ion channel cell based antagonist calcium flux assay 16,17

[5] = target: T2, Cav2.2 channel (Rattus norvegicus, UniProt Q02294); assay: Radioligand binding, Cav2.2 channel; parameters: dose or concentration left out as unconfirmed; details: rat cerebral cortex; read-out: % Inhibition of Control Specific Binding, Cav2.2 Channel (Antagonist Radioligand)
T2 construct: tissue Eurofins (Poitiers, France), contract assay; host or cells: rat cerebral cortex (own knowledge of the vendor's assay)
T2 sequence (Q02294 whole entry): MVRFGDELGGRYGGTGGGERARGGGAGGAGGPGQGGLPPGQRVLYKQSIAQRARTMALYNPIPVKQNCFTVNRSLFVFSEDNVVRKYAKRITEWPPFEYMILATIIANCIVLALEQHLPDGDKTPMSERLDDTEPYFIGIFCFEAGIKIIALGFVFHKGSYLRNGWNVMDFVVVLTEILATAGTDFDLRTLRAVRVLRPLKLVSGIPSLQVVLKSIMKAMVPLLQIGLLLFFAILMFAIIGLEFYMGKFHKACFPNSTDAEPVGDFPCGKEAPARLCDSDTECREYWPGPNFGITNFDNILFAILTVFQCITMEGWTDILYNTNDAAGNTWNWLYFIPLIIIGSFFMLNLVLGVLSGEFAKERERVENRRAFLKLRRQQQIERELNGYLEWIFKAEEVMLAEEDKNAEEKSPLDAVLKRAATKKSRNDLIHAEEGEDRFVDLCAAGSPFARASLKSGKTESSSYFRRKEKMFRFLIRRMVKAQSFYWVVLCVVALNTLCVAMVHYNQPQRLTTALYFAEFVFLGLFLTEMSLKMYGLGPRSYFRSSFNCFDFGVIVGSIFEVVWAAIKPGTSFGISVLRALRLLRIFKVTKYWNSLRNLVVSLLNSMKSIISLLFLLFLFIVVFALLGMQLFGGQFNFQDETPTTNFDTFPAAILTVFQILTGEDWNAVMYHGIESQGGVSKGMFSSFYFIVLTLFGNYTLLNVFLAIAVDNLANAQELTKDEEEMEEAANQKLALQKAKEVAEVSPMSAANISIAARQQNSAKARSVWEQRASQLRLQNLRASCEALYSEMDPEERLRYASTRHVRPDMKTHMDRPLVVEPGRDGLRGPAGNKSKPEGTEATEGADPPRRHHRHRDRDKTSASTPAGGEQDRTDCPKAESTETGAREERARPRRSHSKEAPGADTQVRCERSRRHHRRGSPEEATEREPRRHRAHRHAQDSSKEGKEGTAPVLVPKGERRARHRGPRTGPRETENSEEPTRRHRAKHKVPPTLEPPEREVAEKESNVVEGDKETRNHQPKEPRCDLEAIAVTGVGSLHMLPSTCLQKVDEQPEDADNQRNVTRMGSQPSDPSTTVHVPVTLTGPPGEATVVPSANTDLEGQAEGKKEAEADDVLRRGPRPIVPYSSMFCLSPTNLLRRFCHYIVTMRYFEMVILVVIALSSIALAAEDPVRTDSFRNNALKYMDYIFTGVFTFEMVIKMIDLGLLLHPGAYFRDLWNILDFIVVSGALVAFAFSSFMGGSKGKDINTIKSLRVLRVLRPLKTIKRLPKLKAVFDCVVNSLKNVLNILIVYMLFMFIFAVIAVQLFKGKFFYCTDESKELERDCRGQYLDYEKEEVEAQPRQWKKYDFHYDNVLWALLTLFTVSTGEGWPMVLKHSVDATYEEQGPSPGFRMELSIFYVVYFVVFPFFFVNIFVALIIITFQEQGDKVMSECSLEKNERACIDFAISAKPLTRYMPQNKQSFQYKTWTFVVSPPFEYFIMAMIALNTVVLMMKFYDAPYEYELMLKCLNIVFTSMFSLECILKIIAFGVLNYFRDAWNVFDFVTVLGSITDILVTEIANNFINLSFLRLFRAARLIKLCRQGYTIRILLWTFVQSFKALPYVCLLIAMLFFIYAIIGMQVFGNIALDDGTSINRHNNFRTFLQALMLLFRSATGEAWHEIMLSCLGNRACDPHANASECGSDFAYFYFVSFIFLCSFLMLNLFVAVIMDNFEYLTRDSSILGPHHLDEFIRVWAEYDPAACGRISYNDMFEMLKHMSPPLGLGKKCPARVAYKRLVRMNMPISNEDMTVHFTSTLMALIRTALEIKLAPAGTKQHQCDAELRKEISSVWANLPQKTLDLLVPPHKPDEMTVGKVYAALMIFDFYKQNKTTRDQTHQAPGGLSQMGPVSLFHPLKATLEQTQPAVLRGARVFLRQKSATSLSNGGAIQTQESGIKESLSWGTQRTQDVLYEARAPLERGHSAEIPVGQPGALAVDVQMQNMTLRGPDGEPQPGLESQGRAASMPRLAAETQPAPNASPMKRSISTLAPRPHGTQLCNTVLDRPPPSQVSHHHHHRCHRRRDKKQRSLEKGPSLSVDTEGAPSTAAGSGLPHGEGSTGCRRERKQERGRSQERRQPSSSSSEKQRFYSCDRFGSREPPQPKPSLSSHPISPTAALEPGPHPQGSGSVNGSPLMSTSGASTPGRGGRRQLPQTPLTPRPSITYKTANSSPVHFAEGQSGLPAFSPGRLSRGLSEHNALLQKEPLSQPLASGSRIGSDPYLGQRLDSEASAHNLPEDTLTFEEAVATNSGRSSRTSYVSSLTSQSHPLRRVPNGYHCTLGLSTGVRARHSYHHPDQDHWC
T2 sequence (P54287 whole entry partner): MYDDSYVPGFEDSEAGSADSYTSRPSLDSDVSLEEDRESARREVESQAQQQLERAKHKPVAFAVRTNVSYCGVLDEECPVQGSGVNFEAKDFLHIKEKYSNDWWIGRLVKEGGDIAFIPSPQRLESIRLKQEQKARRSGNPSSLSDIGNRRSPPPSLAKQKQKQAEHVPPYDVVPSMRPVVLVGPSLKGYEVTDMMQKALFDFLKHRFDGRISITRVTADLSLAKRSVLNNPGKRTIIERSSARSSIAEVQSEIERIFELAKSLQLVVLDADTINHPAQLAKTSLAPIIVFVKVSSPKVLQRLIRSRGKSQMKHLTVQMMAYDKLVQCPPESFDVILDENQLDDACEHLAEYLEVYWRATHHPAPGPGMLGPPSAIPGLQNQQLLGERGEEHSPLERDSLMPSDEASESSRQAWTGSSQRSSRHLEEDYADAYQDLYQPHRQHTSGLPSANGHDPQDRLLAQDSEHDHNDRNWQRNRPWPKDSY
T2 sequence (P54290 25-944 partner limits assumed): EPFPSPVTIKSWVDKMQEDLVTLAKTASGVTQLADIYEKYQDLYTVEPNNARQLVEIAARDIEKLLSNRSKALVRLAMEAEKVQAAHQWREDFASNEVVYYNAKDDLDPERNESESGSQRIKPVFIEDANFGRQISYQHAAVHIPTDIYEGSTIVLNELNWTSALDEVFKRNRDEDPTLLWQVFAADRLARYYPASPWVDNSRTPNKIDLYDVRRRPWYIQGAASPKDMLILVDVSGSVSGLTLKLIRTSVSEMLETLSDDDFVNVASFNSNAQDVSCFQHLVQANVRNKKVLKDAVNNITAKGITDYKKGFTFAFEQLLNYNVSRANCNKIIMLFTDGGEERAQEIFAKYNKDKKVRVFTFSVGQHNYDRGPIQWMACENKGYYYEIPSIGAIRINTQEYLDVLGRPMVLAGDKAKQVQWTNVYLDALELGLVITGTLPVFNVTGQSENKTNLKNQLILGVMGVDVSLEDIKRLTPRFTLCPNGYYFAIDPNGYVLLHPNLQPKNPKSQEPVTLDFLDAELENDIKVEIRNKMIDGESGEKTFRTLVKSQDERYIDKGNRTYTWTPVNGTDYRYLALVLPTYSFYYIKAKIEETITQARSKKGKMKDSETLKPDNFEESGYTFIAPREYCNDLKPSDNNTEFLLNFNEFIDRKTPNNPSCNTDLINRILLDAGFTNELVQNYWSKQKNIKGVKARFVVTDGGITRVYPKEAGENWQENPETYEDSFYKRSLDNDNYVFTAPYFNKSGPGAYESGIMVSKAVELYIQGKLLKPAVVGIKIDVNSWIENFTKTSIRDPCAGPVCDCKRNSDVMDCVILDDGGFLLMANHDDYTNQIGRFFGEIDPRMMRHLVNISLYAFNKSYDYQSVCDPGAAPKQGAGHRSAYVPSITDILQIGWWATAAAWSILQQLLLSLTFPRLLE
T2 sequence (P54290 945-1091 partner limits assumed): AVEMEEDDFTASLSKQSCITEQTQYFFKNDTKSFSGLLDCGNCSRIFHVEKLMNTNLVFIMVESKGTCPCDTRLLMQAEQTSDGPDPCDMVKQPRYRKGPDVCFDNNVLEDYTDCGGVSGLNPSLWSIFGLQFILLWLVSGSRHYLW
Description: as §1, §2, §3, §4, §5, §7, §8, §9, §10

[6] = target: T3, GABA-A receptor (α1,β2,γ2) (Homo sapiens, UniProt P14867+P47870); assay: Radioligand binding, GABA-A receptor; parameters: dose or concentration left out as unconfirmed; details: rat cerebral cortex; read-out: % Inhibition of Control Specific Binding, GABA-A Receptor (α1,β2,γ2) (Agonist Radioligand)
T3 construct: Eurofins (Poitiers, France), contract assay
Description: as §1, §2, §3, §4, §5, §7, §8, §9, §10

[7] = target: T4, Potassium channel (hERG) (Homo sapiens, UniProt Q12809); assay: Binding, potassium channel (hERG); details: 100 µM; human recombinant (HEK-293 cells)
T4 construct: Eurofins (Poitiers, France), contract assay
T4 sequence (Q12809 whole entry): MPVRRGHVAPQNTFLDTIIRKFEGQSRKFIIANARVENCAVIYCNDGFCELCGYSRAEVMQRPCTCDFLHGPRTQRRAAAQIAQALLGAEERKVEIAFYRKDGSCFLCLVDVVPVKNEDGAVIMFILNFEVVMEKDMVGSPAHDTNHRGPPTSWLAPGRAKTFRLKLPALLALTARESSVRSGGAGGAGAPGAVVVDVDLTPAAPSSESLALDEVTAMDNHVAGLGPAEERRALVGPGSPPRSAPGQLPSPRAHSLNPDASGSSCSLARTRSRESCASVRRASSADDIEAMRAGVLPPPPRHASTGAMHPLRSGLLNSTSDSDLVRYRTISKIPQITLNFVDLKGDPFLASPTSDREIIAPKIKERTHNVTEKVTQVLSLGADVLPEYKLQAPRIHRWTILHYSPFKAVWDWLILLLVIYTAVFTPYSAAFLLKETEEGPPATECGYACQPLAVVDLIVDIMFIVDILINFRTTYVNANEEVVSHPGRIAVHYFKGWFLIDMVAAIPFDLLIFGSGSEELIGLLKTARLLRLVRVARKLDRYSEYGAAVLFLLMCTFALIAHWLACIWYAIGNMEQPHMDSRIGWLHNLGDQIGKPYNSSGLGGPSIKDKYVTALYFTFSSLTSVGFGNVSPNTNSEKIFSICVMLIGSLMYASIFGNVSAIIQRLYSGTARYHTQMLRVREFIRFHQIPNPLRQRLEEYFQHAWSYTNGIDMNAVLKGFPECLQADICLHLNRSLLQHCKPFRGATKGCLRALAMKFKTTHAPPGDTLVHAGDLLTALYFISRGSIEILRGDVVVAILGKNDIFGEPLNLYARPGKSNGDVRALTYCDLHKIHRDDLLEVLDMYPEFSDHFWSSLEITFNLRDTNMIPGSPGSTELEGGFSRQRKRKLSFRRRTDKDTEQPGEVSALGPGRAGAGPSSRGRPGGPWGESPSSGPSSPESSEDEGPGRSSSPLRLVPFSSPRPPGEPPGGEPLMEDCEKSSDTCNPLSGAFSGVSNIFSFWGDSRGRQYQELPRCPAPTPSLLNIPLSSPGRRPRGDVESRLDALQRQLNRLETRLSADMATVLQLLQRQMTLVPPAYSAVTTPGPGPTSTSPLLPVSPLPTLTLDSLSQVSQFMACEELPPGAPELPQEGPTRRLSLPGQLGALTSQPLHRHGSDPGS
Description: as §1, §2, §3, §4, §5, §7, §8, §9, §10

[8] = Rotarod test for acute neurological toxicity; details: mouse, in vivo, ip
[9] = system: motor coordination of mice; assay: Rotarod test for acute neurological toxicity; details: for impairment of motor coordination of mice: doses as high as 300 mg/kg; for Rotarod test, number of mice / number of mice tested: i.p., 100 mg/kg, 0.5 h
[10] = target: T5, Cav1.2 (h) calcium ion channel (Homo sapiens, UniProt Q13936); assay: Cav1.2 (h) cell-based antagonist calcium flux assay; details: for inhibition at 10 µM: HEK293, human recombinant (HEK-293 cells), read-out: % Inhibition of Control Agonist Response, Cav1.2 (h) calcium flux; for antagonist properties in cell-based flux studies (Cav1.2): 10 µM
T5 construct: host or cells: HEK-293
Description: as §2, §3, §4, §5, §6, §10

[11] = Metabolic stability in human liver microsomes; format: in vitro ADME; details: 120 min incubation with HLMs
Source text: Human liver microsomes (HLMs) were used for metabolic stability determination. Moreover, the most probable phase I reactions and structures of metabolites were proposed according to ion fragment analyses with the in silico support of MetaSite 6.0.1 software. […] On the other hand, an excellent metabolic stability of compound 24 was observed. Less than 4% of this derivative was converted into double-hydroxylated metabolite M1 (Figures S3, S4, and S7, Supplementary Materials). Finally, two monohydroxylated metabolites (M1, M2) were found in the reaction mixture with HLMs and 30, and around 17% of this compound was metabolized (Figures S5–S7, Supplementary Materials).
These assays were performed on human liver microsomes (HLMs), purchased from Sigma-Aldrich (St. Louis, MO, USA), according to [14].

[12] = target: T6, CYP3A4 (Homo sapiens, UniProt P08684); assay: Luminescent CYP3A4 P450-Glo assay; format: in vitro ADME; details: 1 µM
T6 construct: purchased Promega (Madison, WI, USA)

[13] = target: CYP2C9 (Homo sapiens, UniProt P11712); assay: Luminescent CYP2C9 P450-Glo assay
[14] = Parallel artificial membrane permeability assay (PAMPA)
Description: (§11) Passive diffusion was tested in the parallel artificial membrane permeability assay (PAMPA) and expressed as the permeability coefficient (Pe). A highly permeable compound, caffeine (CFN), and a poorly permeable compound, norfloxacin (NFX), were used as the references.
(§12) Precoated PAMPA Plate System Gentest™ was provided by Corning, (Tewksbury, MA, USA).

[15] = system: PTZ seizures, mice; details: known AED, background statement; cited from earlier work
[16] = system: MES seizures, mice; details: known AED, background statement; cited from earlier work
[17] = system: 6 Hz (32 mA) seizures, mice; details: known AED, background statement; cited from earlier work
[18] = in vivo; details: mouse, ip
[19] = in vitro; details: PAMPA
Description: as §11, §12

[20] = groups of four, read-out: protection in the MES test
[21] = read-out: MES test, number of mice protected / number of mice tested (converted)

SMILES	responders at 100 mg/kg [1, 20]	responders at 100 mg/kg [1, 21]	ED50 [1]	responders at 100 mg/kg [2]	ED50 [2]	% Inhibition of Control Specific Binding, Na+ Channel (Site 2) (Antagonist Radioligand) [3]	inhibition [4]	inhibition [5]	inhibition [6]	% Inhibition of Control Specific Binding, Potassium Channel (hERG) [7]	TD50 at 0.5 h [8]	Rotarod test, number of mice / number of mice tested [9]	inhibition at 10 µM [10]	melting point	other results
O=C(Nc1ccccc1)C(c1ccccc1)N1C(=O)CCC1=O (stereo not drawn) [Compound 3, 2-(2,5-Dioxopyrrolidin-1-yl)-N,2-diphenylacetamide]	≥ 50%	50%	> 130 mg/kg	75%	92.5 mg/kg	10.8%	9%	3.6%	5.2%	0.8%	> 300 mg/kg	0/4			impairment of motor coordination of mice [9]: did not impair motor coordination
O=C(NCc1ccccc1C(F)(F)F)C(c1ccccc1)N1C(=O)CCC1=O (stereo not drawn) [Compound 21, 2-(2,5-Dioxopyrrolidin-1-yl)-2-phenyl-N-(2-(trifluoromethyl)benzyl)acetamide]	≥ 50%	50%	49.6 mg/kg	25%		18.8%	26.6%	0.2%	1.2%	6.3%	> 300 mg/kg	0/4	27%	137.7 to 139.1 °C	effectiveness in the 6 Hz test ([2]; i.p.): not effective; impairment of motor coordination of mice [9]: did not impair motor coordination
O=C(NCc1cccc(OC(F)(F)F)c1)C(c1ccccc1)N1C(=O)CCC1=O (stereo not drawn) [Compound 24, 2-(2,5-Dioxopyrrolidin-1-yl)-2-phenyl-N-(3-(trifluoromethoxy)benzyl)acetamide]	≥ 50%	75%	> 130 mg/kg	100%	43.8 mg/kg	22.3%	36.5%	5.5%	-0.8%	4.4%	> 300 mg/kg	0/4	38.8%	129.6 to 130.4 °C	binding to voltage-gated calcium channels Cav1.2 [4]: moderate binding; antagonist properties in cell-based flux studies (Cav1.2) [10]: moderate antagonist properties; compound converted into metabolites / metabolized [11]: Less than 4%; parent compound remained in the reaction mixture [11]: 96.49%; effect on CYP3A4 activity [12]: slightly inhibited CYP3A4 activity; CYP2C9 activity, % of control ([13]; 10 and 25 µM): up to 140 % of control; impairment of motor coordination of mice [9]: did not impair motor coordination; Papp [14]: 10.9 ± 0.5 ×10⁻⁶ cm/s
O=C(NCCc1ccccc1)C(c1ccccc1)N1C(=O)CCC1=O (stereo not drawn) [Compound 25, 2-(2,5-Dioxopyrrolidin-1-yl)-N-phenethyl-2-phenylacetamide]	≥ 50%	75%	87.9 mg/kg	75%	88.9 mg/kg	14.8%	19%	2.5%	3.6%	4.8%	210 mg/kg	1/4			acute neurological toxicity (rotarod) ([9]; at doses around or below 200 mg/kg): moderate acute neurological toxicity
O=C(NCCc1cccc(Cl)c1)C(c1ccccc1)N1C(=O)CCC1=O (stereo not drawn) [Compound 27, N-(3-Chlorophenethyl)-2-(2,5-dioxopyrrolidin-1-yl)-2-phenylacetamide]		50%		75%	36.3 mg/kg	20.1%	38.3%	3.8%	0.7%	2.7%	> 300 mg/kg	0/4	40%	137.4 to 138.2 °C	binding to voltage-gated calcium channels Cav1.2 [4]: moderate binding; antagonist properties in cell-based flux studies (Cav1.2) [10]: moderate antagonist properties
O=C(NCCc1cccc(C(F)(F)F)c1)C(c1ccccc1)N1C(=O)CCC1=O (stereo not drawn) [Compound 29, 2-(2,5-Dioxopyrrolidin-1-yl)-2-phenyl-N-(3-(trifluoromethyl)phenethyl)acetamide]	100%	75%	55.4 mg/kg	75%	49.3 mg/kg	18.3%	44.2%	-0.6%	2.1%	3.4%	179 mg/kg	0/4	45%	149.2 to 150.4 °C	binding to voltage-gated calcium channels Cav1.2 [4]: moderate binding; antagonist properties in cell-based flux studies (Cav1.2) [10]: moderate antagonist properties
CCC1(C)CC(=O)NC1=O (stereo not drawn) [ETX, ethosuximide]															activity in the (sc)PTZ model [15]: protected mice only in the scPTZ model
COC[C@@H](NC(C)=O)C(=O)NCc1ccccc1 [LCS, lacosamide]															activity in the MES model [16]: active; activity in the 6 Hz (32 mA) model [17]: active
CC[C@@H](C(N)=O)N1CCCC1=O [LEV, levetiracetam]															activity in the 6 Hz (32 mA) model [17]: showed efficacy only in the 6 Hz seizure model
Nc1nnc(-c2cccc(Cl)c2Cl)c(N)n1 [LTG, lamotrigine, reference compound]			3.1 mg/kg		6.4 mg/kg										TD50 at 0.5 h [18]: 48.3 mg/kg
CCn1cc(C(=O)O)c(=O)c2cc(F)c(N3CCNCC3)cc21 [NFX, norfloxacin]															Papp [19]: 0.056 ×10⁻⁶ cm/s
Nc1ccc(S(=O)(=O)Nc2ccnn2-c2ccccc2)cc1 [SE, sulfaphenazole, reference compound]															effect on CYP2C9 activity ([13]; 1 µM): almost completely blocked CYP2C9 activity
